Measurements published in BigSolDB 2.1.

COC(=O)C1=C(C)NC(C)=C(C(=O)OCC(C)C)C1c1ccccc1[N+](=O)[O-] (stereo not given)
solubility (mole fraction)
Conditions | in acetonitrile | in cyclohexane | in ethanol | in ethyl acetate | in isopropanol | in n-butanol | in n-propanol | in toluene | in water
278.15 K | 0.00849 | – | 0.00278 | 0.0166 | 0.00467 | 0.00573 | 0.00378 | 0.00154 | 4e-06
283.15 K | 0.0102 | 5.7e-05 | 0.00348 | 0.0188 | 0.00563 | 0.00671 | 0.00455 | 0.00183 | 5e-06
288.15 K | 0.012 | 7.3e-05 | 0.0043 | 0.0215 | 0.00669 | 0.00795 | 0.00545 | 0.00218 | 7e-06
293.15 K | 0.0144 | 9.1e-05 | 0.00529 | 0.0246 | 0.00796 | 0.00938 | 0.00657 | 0.0026 | 9e-06
298.15 K | 0.0169 | 0.000111 | 0.00648 | 0.0278 | 0.00935 | 0.0111 | 0.0078 | 0.00309 | 1.2e-05
303.15 K | 0.0197 | 0.000137 | 0.00789 | 0.0316 | 0.011 | 0.0129 | 0.00941 | 0.00366 | 1.5e-05
308.15 K | 0.0232 | 0.000164 | 0.00935 | 0.0358 | 0.0129 | 0.0149 | 0.0111 | 0.00428 | 1.9e-05
313.15 K | 0.0271 | 0.000198 | 0.0112 | 0.0401 | 0.0152 | 0.0173 | 0.013 | 0.005 | 2.4e-05
318.15 K | 0.0317 | 0.000237 | 0.0134 | 0.0457 | 0.0178 | 0.0202 | 0.0155 | 0.00588 | 3e-05
